Data on 53 molecules can be found in ChEMBL document CHEMBL5500409, “Discovery of 5-(Piperidin-4-yl)-1,2,4-oxadiazole Derivatives as a New Class of Human Caseinolytic Protease P Agonists for the Treatment of Hepatocellular Carcinoma” (J Med Chem, 2024).

For experiment [1], the target named is T1, ATP-dependent Clp protease proteolytic subunit, mitochondrial (Homo sapiens, UniProt Q16740). Put plainly: Agonist activity at human ClpP using Ac-WLA-AMC as substrate assessed as induction of substrate degradation.
T1 sequence (Q16740 whole entry): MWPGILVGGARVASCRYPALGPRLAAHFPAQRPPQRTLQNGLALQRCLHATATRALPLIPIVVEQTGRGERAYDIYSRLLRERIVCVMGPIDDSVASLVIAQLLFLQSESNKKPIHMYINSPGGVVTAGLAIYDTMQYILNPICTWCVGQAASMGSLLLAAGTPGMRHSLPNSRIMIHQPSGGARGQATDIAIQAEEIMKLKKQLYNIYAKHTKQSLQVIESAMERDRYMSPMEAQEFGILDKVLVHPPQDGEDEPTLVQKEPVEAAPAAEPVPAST
Experiment [2] deals with T1, ATP-dependent Clp protease proteolytic subunit, mitochondrial. Briefly: Agonist activity at N-terminal SUMO tagged human ClpP transfected in Escherichia coli assessed as induction of alpha-casein degradation preincubated for 10 mins followed by alpha-casein addition and measured after 2 hrs by brilliant blue staining based SDS-PAGE analysis.
Experiment [3] concerns HCCLM3. Briefly: cells. The following applies: Homo sapiens, HCCLM3, 72 h.
Description: Antiproliferative activity against human HCCLM3 cells assessed as inhibition of cell proliferation measured after 72 hrs by MTT assay
Experiment [4] has as its system HCCLM3. Put plainly: cells. The following applies: Homo sapiens, HCCLM3, 72 h, read-out: INH.
Description: Antiproliferative activity against human HCCLM3 cells assessed as inhibition of cell proliferation at 10 uM measured after 72 hrs by MTT assay relative to control
Experiment [5] concerns HCCLM3. Briefly: Antitumor activity against human HCCLM3 cells xenografted in female Balb/c nude mouse assessed as tumor growth inhibition at 20 mg/kg, ip tumor inoculated for 5 days followed by compound administration every 2 days for 4 weeks relative to control. The following applies: HCCLM3, 672 h, read-out: TGI.

The structures appear in SMILES notation.

For the molecule `O=C(c1ccc(F)cc1)N1CCC[C@H](c2nc(-c3ccc(F)cc3)no2)C1`, the EC50 in experiment [1] was 1.2 µM; in experiment [2], 29.7 µM. For the same molecule, the IC50 in experiment [3] amounted to 66.4 µM.
With `N#Cc1cccc(CN2CCC(c3nc(Cc4ccc(F)c(Br)c4)no3)CC2)c1`, the inhibition at 10 µM in experiment [4] came out at 83.2%. In experiment [3], this molecule gave an IC50 of 3.7 µM.
Take `N#Cc1cccc(CN2CCC(c3nc(Cc4cc(F)cc(F)c4)no3)CC2)c1`: in experiment [4], the inhibition at 10 µM stood at 46.4%.
Turning to `N#Cc1cccc(CN2CCC(c3nc(Cc4ccc(Br)c(F)c4)no3)CC2)c1`, the inhibition at 10 µM in experiment [4] was 74.4%. For the same molecule, in experiment [3], the IC50 is 6.4 µM.
Regarding `N#Cc1cccc(CN2CCC(c3nc(Cc4ccc(Cl)cc4F)no3)CC2)c1`, the inhibition at 10 µM in experiment [4] is 55.9%. Moreover, in experiment [3], the IC50 was 9.3 µM.
On to `O=C(c1ccc(F)cc1)N1CCC[C@@H](c2nc(-c3ccc(F)cc3)no2)C1`, for which the inhibition at 10 µM in experiment [4] was found to be 17.8%.
Turning to `O=S(=O)(NCCc1nc(Cc2ccc(F)cc2)no1)c1ccc(F)cc1`, the inhibition at 10 µM in experiment [4] amounted to 13.2%.
The same measure, in the same setting: with `O=C(Cc1ccc(F)cc1)N1CC(c2nc(Cc3ccc(F)cc3)no2)C1` the figure was 11.5%.
`N#Cc1cccc(CN2CCC(c3nc(Cc4cc(F)c(F)c(F)c4)no3)CC2)c1`: the inhibition at 10 µM in experiment [4] was 80.9%. For the same molecule, the IC50 in experiment [3] came to 4.8 µM.
In the same order, the values of `N#Cc1cccc(CN2CCC(c3nc(Cc4cccc(F)c4)no3)CC2)c1` are 50.4% and 9.8 µM.
Regarding `N#Cc1cccc(CN2CCC(c3nc(-c4ccc(C(F)(F)F)cc4)no3)CC2)c1`, the inhibition at 10 µM in experiment [4] turned out to be 19.5%.
As to `N#Cc1cccc(C(=O)N2CCC(c3nc(Cc4ccc(F)cc4)no3)CC2)c1`, the inhibition at 10 µM in experiment [4] worked out at 22.4%.
Take `N#Cc1cccc(CN2CCC(c3nc(Cc4cccc(C(F)(F)F)c4)no3)CC2)c1`: the inhibition at 10 µM in experiment [4] was found to be 73.6%. This molecule came in with an IC50 in experiment [3] of 7.2 µM.
In the case of `Fc1ccc(Cc2noc(C3CCN(Cc4ccc(C(F)(F)F)cc4)CC3)n2)cc1`, in experiment [4], the inhibition at 10 µM was 18.8%.
For `O=C(c1ccc(F)cc1)N1CC[C@H](c2nc(Cc3ccc(F)cc3)no2)C1`, the inhibition at 10 µM in experiment [4] is 6%.
For the molecule `O=C(c1ccc(F)cc1)N1CCC[C@H](c2nc(Cc3ccc(F)cc3)no2)C1`, the inhibition at 10 µM in experiment [4] amounted to 9.3%.
Same read-out and setting: with `N#Cc1cccc(CN2CCC(c3nc(-c4cccc(C(F)(F)F)c4)no3)CC2)c1` the figure was 30.3%; with `N#Cc1cccc(CN2CCC(c3nc(Cc4ccc(F)cc4F)no3)CC2)c1`, 36.4%; with `N#Cc1cccc(CN2CCC(c3nc(Cc4ccc(Br)cc4F)no3)CC2)c1`, 23.7%.
As for `Cc1ccccc1Cc1noc(C2CCN(Cc3cccc(C#N)c3)CC2)n1`, the inhibition at 10 µM in experiment [4] was found to be 12.3%.
Regarding `N#Cc1cccc(CN2CCC(c3nc(Cc4ccccc4)no3)CC2)c1`, the inhibition at 10 µM in experiment [4] was found to be 64.5%. This molecule showed an IC50 in experiment [3] of 7.7 µM.
Consider `O=C(c1ccc(F)cc1)N1CCC(c2nc(Cc3ccc(F)cc3)no2)CC1`, for which, in experiment [4], the inhibition at 10 µM was 22.1%.
Same read-out and setting: under `O=C(Cc1ccc(F)cc1)N1CC[C@H](c2nc(Cc3ccc(F)cc3)no2)C1` stands 5.8%.
`N#Cc1cccc(CN2CCC(c3nc(Cc4ccc(F)cc4)no3)CC2)c1`: in experiment [4], the inhibition at 10 µM is 77.5%. The molecule also registered an IC50 in experiment [3] of 5.9 µM.
`O=C(NCCc1nc(Cc2ccc(F)cc2)no1)c1ccc(C(F)(F)F)cc1`: in experiment [4], the inhibition at 10 µM turned out to be 15.5%.
With `Fc1ccc(CN2CCC[C@@H](c3nc(-c4ccc(F)cc4)no3)C2)cc1`, the inhibition at 10 µM in experiment [4] was 11%.
Take `O=C(c1ccc(F)cc1)N1CC(c2nc(Cc3ccc(F)cc3)no2)C1`: the inhibition at 10 µM in experiment [4] is 23%.
On the same count and under the same terms, under `O=C(Cc1ccc(F)cc1)N1CCC[C@@H](c2nc(-c3ccc(F)cc3)no2)C1` stands 18.3%.
Turning to `N#Cc1cccc(CN2CCC(c3nc(Cc4ccc(Br)cc4)no3)CC2)c1`, in experiment [4], the inhibition at 10 µM came out at 70%. The same molecule had an IC50 in experiment [3] of 6.7 µM.
With `Fc1ccc(Cc2noc([C@H]3CCCN3Cc3ccc(F)cc3)n2)cc1`, the inhibition at 10 µM in experiment [4] was determined as 32.5%.
The same measure, in the same setting: with `Fc1ccc(Cc2noc(C3CCN(Cc4ccccn4)CC3)n2)cc1Cl` the figure was 11.1%.
Turning to `N#Cc1cccc(CN2CCC(c3nc(Cc4ccc(Cl)c(F)c4)no3)CC2)c1`, the inhibition at 10 µM in experiment [4] was 71.1%. The molecule further came in with a half-maximal inhibitory concentration (IC50) in experiment [3] of 7.6 µM.
`Fc1ccc(Cc2noc([C@H]3CCCN3Cc3ccc(C(F)(F)F)cc3)n2)cc1`: the inhibition at 10 µM in experiment [4] came to 13.3%.
`Fc1ccc(Cc2noc(C3CCN(Cc4ccc(F)cc4)CC3)n2)cc1`: the inhibition at 10 µM in experiment [4] is 30%.
As to `N#Cc1cccc(CN2CCC(c3nc(Cc4cc(F)ccc4F)no3)CC2)c1`, in experiment [4], the inhibition at 10 µM was 12.2%.
Same read-out and setting: under `N#Cc1cccc(CN2CCC(c3nc(Cc4ccc(F)cc4Cl)no3)CC2)c1` stands 10.4%; under `N#Cc1cccc(CC(=O)N2CCC(c3nc(Cc4ccc(F)cc4)no3)CC2)c1`, 31.5%; under `Fc1ccc(Cc2noc([C@H]3CCCN(Cc4ccc(F)cc4)C3)n2)cc1`, 22.5%.
Regarding `N#Cc1cccc(CN2CCC(c3nc(Cc4ccccc4F)no3)CC2)c1`, the inhibition at 10 µM in experiment [4] was found to be 68.9%. In experiment [3], this molecule displayed a half-inhibitory concentration (IC50) of 7.9 µM.
In the same order, the values of `N#Cc1cccc(CN2CCC(c3nc(Cc4ccc(Cl)cc4)no3)CC2)c1` are 61.5% and 8.9 µM.
Consider `O=C(Cc1ccc(F)cc1)N1CCC[C@H](c2nc(Cc3ccc(F)cc3)no2)C1`, for which the inhibition at 10 µM in experiment [4] amounted to 5.3%.
Take `N#Cc1cccc(CN2CCC(c3nc(Cc4ccc(F)c(F)c4)no3)CC2)c1`: the inhibition at 10 µM in experiment [4] was 88.3%. In experiment [3], this molecule yielded an IC50 of 3.7 µM.
In the same order, the values of `N#Cc1cccc(CN2CCC(c3nc(Cc4ccc(C(F)(F)F)cc4)no3)CC2)c1` are 56.4% and 9.2 µM.
On to `N#Cc1cccc(CN2CCC(c3nc(Cc4cccc(F)c4F)no3)CC2)c1`, for which the inhibition at 10 µM in experiment [4] worked out at 11.7%.
On the same count and under the same terms, under `N#Cc1cccc(C(=O)NCCc2nc(Cc3ccc(F)cc3)no2)c1` stands 16.1%.
The same measure, in the same setting: with `N#Cc1cccc(CN2CC(c3nc(Cc4ccc(F)cc4)no3)C2)c1` the figure was 5.9%.
On the same count and under the same terms, under `O=C(NCCc1nc(Cc2ccc(F)cc2)no1)c1ccc(F)cc1` stands 24.3%.
On to `N#Cc1cccc(CN2CCC[C@@H]2c2nc(Cc3ccc(F)cc3)no2)c1`, for which the inhibition at 10 µM in experiment [4] came out at 38.8%.
On the same count and under the same terms, under `Fc1ccc(Cc2noc(C3CCN(Cc4cccnc4)CC3)n2)cc1Cl` stands 16.7%; under `N#Cc1cccc(CN2CCC(c3nc(Cc4c(F)c(F)c(F)c(F)c4F)no3)CC2)c1`, 12.8%.
Still for that read-out and setting: with `Cc1ccc(Cc2noc(C3CCN(Cc4cccc(C#N)c4)CC3)n2)cc1` the figure was 20.6%; with `N#Cc1cccc(CN2CCC(c3nc(Cc4ccc(F)cc4Br)no3)CC2)c1`, 12.7%.
As for `CNC(=O)c1cc(Oc2ccc(NC(=O)Nc3ccc(Cl)c(C(F)(F)F)c3)cc2)ccn1` [SORAFENIB], the inhibition in vivo at 20 mg/kg in experiment [5] turned out to be 80.2%. Half-maximal inhibition in experiment [3] (IC50) was put at 6.3 µM.
